Test results taken from patent publication US10983109B2, “Compositions and methods for treating B-lymphoid malignancies” (The Children's Hospital of Philadelphia, priority 2013, dated 2021).

Key:
Format in all cases: cell-based, mouse
[1] = test system: protein synthesis; assay: Cycloheximide experiment in Pax5- and CD19-reconstituted Myc5 cells; settings: 1 μg/ml, over 30 minutes
Text: All figures except FIGS. 3E and 3H represent immunoblotting analyses of proteins indicated on the left. Actin was used as a loading control. In bracketed panels of FIG. 3A, whole cell lysates from Myc5 cells expressing HA-tagged wild-type or mutant (“mut”) ITAM were subjected to immune-precipitation with an α-HA antibody followed by immunoblotting with antibody against total Lyn, Tyr396-phospho-Lyn, or another α-HA antibody. In the bottom panels, lysates from the same cells were immunoblotted with antibodies against c-Myc, and β-actin. […] Mean fluorescent intensities (MFI) are shown in each plot. […] CHX was added at the concentration of 1 μg/ml for 7.5-30 minutes. In the bottom panels Myc-specific bands were quantitated by densitometry, normalized to actin, and plotted against time after treatment. Note that different exposures are shown for parental and Pax5/CD19-transduced cells to allow accurate band quantitation. […]
Myc5 stably transduced with either Pax5 or CD19 retroviral construct were seeded at 1×10^6/ml in 50 ml conical tubes received cycloheximide (Sigma) treatment at 1 μg/ml, while stimulation with 95% ethanol (sigma) served as control. […] Protein samples were resolved on 10% SDS-PAGE for Western blot analysis. c-Myc protein levels were quantified by densitometry using ImageJ 1.43 (National Institutes of Health) with quantitated values normalized to β-actin.

[2] = test system: Src family tyrosine kinases (SFTKs); assay: Western blotting with phospho-specific antibodies of MYC5 cells expressing WT or MUT CD19 treated with SU6656
Method: (§1) FIG. 11A provides growth rates of MYC5 tumors expressing either wild type or mutant CD19. FIG. 11B provides immunoblotts of protein lysates obtained from individual tumors in FIG. 11A on day 23. […] Phosphorylation was assessed using Western blotting with phospho-specific antibodies. […] GFP-only-expressing MYC5 cells were used as a control. Cell proliferation was measured using the WST assay at indicated time points.

[3] = test system: MYC5/CD19 cells; assay: WST cell proliferation assay of MYC5/CD19 cells; settings: CD19mut/PI3K-disabled cells; GFP-only MYC5 cells as control
Method: as §1
Proliferation of Myc5-M5 CD19 transduced cells in vitro were determined using cell proliferation reagent WST-1 (Roche Molecular Biochemicals). Cells were seeded at 1×10^3/well in 100 μl of culture medium were incubated for a total of 72 hours. Proliferation status was determined every 24 hours by incubating with 10 μl of the cell proliferation reagent WST-1 for 4 hours. The absorbance of the treated samples in triplicates were measured against a blank control was measured at 440 nM using a Synergy™ 2 microplate reader (BioTek Instruments).

Compound	Myc levels [1]	retrovirally transduced Pax5 or CD19 protein expression [1]	phospho-JNK levels [2]	cell proliferation (WST assay) [3]
C[C@@H]1C[C@@H]([C@H](O)CC2CC(=O)NC(=O)C2)C(=O)[C@@H](C)C1 [CHX, cycloheximide]	clearly down-regulated	no observable effects	–	–
CN(C)S(=O)(=O)c1ccc2c(c1)/C(=C/c1cc3c([nH]1)CCCC3)C(=O)N2 [SU6656]	–	–	reduced	selectively suppressed proliferation
